Experimental data taken from ChEMBL document CHEMBL1158395, “Discovery of novel acetanilide derivatives as potent and selective beta3-adrenergic receptor agonists” (Eur J Med Chem, 2009).

How the values were obtained:
[1] = target: Beta-2 adrenergic receptor (Homo sapiens, UniProt P07550)
Description: Agonist activity at human cloned adrenergic beta2 receptor expressed in CHO cells assessed as increase in cAMP production after 2 days by radioimmunoassay

[2] = target: Beta-3 adrenergic receptor (Homo sapiens, UniProt P13945); experiment: Agonist activity at human cloned adrenergic beta3 receptor expressed in CHO cells assessed as increase in cAMP production after 2 days by radioimmunoassay; format: functional, cell-based
Beta-3 adrenergic receptor, sequence (P13945 whole entry): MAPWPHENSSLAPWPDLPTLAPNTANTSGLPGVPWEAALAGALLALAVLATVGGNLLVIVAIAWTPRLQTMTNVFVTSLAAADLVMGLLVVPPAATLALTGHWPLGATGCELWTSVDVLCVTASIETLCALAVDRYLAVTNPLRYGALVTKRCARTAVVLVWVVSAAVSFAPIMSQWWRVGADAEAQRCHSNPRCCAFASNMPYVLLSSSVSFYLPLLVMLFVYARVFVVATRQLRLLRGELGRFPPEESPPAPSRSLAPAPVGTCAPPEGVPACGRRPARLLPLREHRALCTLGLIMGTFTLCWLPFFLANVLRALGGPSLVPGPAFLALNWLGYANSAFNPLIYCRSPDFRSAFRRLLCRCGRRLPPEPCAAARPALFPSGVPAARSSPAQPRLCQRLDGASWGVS

[3] = target: Beta-1 adrenergic receptor (Homo sapiens, UniProt P08588)
Beta-1 adrenergic receptor, sequence (P08588 whole entry): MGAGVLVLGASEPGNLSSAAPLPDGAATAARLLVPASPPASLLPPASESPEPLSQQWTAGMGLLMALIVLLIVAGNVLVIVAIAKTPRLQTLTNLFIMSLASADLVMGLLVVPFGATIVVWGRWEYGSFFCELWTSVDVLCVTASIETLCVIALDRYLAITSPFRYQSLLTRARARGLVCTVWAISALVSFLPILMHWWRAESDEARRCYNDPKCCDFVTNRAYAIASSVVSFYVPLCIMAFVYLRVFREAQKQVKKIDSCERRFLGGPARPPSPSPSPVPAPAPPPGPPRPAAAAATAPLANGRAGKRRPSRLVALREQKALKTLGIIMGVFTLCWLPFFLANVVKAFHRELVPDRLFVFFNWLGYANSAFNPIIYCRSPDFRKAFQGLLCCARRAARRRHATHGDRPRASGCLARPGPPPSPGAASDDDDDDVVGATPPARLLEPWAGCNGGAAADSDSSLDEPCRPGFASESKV
Description: Agonist activity at human cloned adrenergic beta-1 receptor expressed in CHO cells assessed as increase in cAMP production after 2 days by radioimmunoassay

[4] = tested on: Mus musculus; experiment: Hypoglycemic activity in diabetic kk mouse assessed as reduction in plasma glucose levels at 30 mg/kg, po administered for 4 days measured after 15 to 18 hrs by glucose oxidase method; format: functional; design: scale not given: the % may be the effect or the level left

Beta-2 adrenergic receptor, sequence (P07550 whole entry): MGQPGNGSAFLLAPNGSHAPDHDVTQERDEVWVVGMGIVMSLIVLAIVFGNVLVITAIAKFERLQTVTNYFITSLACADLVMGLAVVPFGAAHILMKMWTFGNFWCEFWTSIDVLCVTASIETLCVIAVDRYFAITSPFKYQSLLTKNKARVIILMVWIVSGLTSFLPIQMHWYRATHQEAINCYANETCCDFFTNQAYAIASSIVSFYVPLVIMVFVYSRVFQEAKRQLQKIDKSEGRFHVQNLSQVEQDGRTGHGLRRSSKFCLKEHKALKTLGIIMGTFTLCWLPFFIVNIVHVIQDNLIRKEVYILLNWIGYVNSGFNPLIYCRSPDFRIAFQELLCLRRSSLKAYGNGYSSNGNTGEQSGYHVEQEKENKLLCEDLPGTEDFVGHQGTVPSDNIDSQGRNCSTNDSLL

Row | EC50 [1] [nM] | EC50 [2] [nM] | EC50 [3] [nM] | Structure (SMILES) | Activity [4] [%]
1 | > 100000 | 290 | 2700 | O=C(Cc1ccccn1)Nc1ccc(CCNC[C@H](O)COc2ccc(O)cc2)cc1 | 32
2 | > 100000 | 960 | 660 | NC(C(=O)Nc1ccc(CCNC[C@H](O)COc2ccc(O)cc2)cc1)c1ccccc1 (some centres not stated) | –
3 | > 100000 | 1700 | 760 | O=C(Cc1ccccc1)Nc1ccc(CCNC[C@H](O)COc2ccc(O)cc2)cc1 | –
4 | > 100000 | 1700 | 280 | COc1ccc(CC(=O)Nc2ccc(CCNC[C@H](O)COc3ccc(O)cc3)cc2)cc1 | –
5 | > 100000 | 960 | 590 | O=C(Nc1ccc(CCNC[C@H](O)COc2ccc(O)cc2)cc1)C(O)c1ccccc1 (some centres not stated) | –
6 | > 100000 | 650 | 1700 | O=C(Cc1ccc2ccccc2n1)Nc1ccc(CCNC[C@H](O)COc2ccc(O)cc2)cc1 | –
7 | > 100000 | 360 | 960 | COc1ccccc1CC(=O)Nc1ccc(CCNC[C@H](O)COc2ccc(O)cc2)cc1 | –
8 | > 100000 | 560 | 710 | COc1cccc(CC(=O)Nc2ccc(CCNC[C@H](O)COc3ccc(O)cc3)cc2)c1 | –
9 | > 100000 | 1200 | 190 | O=C(Cc1ccc(Cl)cc1)Nc1ccc(CCNC[C@H](O)COc2ccc(O)cc2)cc1 | –
10 | > 100000 | 740 | 720 | O=C(Cc1ccccc1Cl)Nc1ccc(CCNC[C@H](O)COc2ccc(O)cc2)cc1 | –

More lines, now with the values behind:

Row | Structure (SMILES) | EC50 [1] [nM] | EC50 [2] [nM] | EC50 [3] [nM] | Activity [4] [%]
11 | O=S(=O)(Nc1ccc(CCNC[C@H](O)COc2ccc(O)cc2)cc1)c1ccccc1 | > 100000 | 78 | 1600 | –
12 | O=C(Cc1cccs1)Nc1ccc(CCNC[C@H](O)COc2ccc(O)cc2)cc1 | > 100000 | 500 | 550 | –
13 | O=C(Nc1ccc(CCNC[C@H](O)COc2ccc(O)cc2)cc1)C(c1ccccc1)c1ccccc1 | > 100000 | 120 | 180 | –
14 | O=C(Cc1ccsc1)Nc1ccc(CCNC[C@H](O)COc2ccc(O)cc2)cc1 | > 100000 | 550 | 490 | –
15 | O=C(CC1C=Nc2ccccc21)Nc1ccc(CCNC[C@H](O)COc2ccc(O)cc2)cc1 (some centres not stated) | > 100000 | 490 | 550 | –
16 | O=C(Cc1cnccn1)Nc1ccc(CCNC[C@H](O)COc2ccc(O)cc2)cc1 | > 100000 | 83 | 3100 | 13
17 | O=C(Cc1ccc2ccccc2c1)Nc1ccc(CCNC[C@H](O)COc2ccc(O)cc2)cc1 | > 100000 | 240 | 150 | –
18 | O=C(Cc1cccc(Cl)c1)Nc1ccc(CCNC[C@H](O)COc2ccc(O)cc2)cc1 | > 100000 | 890 | 83 | –
19 | O=C(Cc1ccncc1)Nc1ccc(CCNC[C@H](O)COc2ccc(O)cc2)cc1 | > 100000 | 520 | 260 | –
20 | O=C(Cc1cccnc1)Nc1ccc(CCNC[C@H](O)COc2ccc(O)cc2)cc1 | > 100000 | 1500 | 910 | –
21 | O=C(Cc1cc2ccccc2cn1)Nc1ccc(CCNC[C@H](O)COc2ccc(O)cc2)cc1 | > 100000 | 140 | 350 | –
22 | O=C(Cc1ncccn1)Nc1ccc(CCNC[C@H](O)COc2ccc(O)cc2)cc1 | > 100000 | 110 | > 100000 | 20
23 | O=C(Cc1cccc2ccccc12)Nc1ccc(CCNC[C@H](O)COc2ccc(O)cc2)cc1 | > 100000 | 470 | 600 | –
